Results taken from patent US7238830B2, “N-alkylaspartyl dipeptide ester compounds” (Ajinomoto Co., Inc., priority 1998, dated 2007).

Experiments:
[1] = Sensory evaluation of sweetness (sweetening potency) relative to sucrose; conditions: for Sweetness (sweetening potency): sensory evaluation; for sweetness potency: values compared to sweetening potency of a 4% aqueous solution of sucrose
Text: For example, the sweetness of N-[N-[3-(3-hydroxy-4-methoxyphenyl)-3-methylbutyl]-L-α-aspartyl]-L-phenylalanine 1-methyl ester was approximately 70000 times that of sugar, the sweetness of N-[N-[3-(3-methyl-4 hydroxyphenyl)-3-methylbutyl]-L-α-aspartyl]-L-phenylalanine 1-methyl ester was approximately 70000 times that of sugar, the sweetness of N-[N-[3-(3-hydroxy-4-methylphenyl)-3-methylbutyl]-L-α- aspartyl]-L-phenylalanine 1-methyl ester was approximately 60000 times that of sugar, and the sweetness of N-[N-((RS)-3-(3 hydroxy-4-methoxyphenyl) butyl]-L-α-aspartyl]-L-phenylalanine 1-methyl ester was approximately 50000 times that of sugar. […] Sensory evaluations can be performed as described in, for example, B. T. Carr, S. D. Pecore, K. M. Gibes and G. E. Dubois, “Sensory Methods for Sweetner Evaluation” in Flavor Measurement, edited by C. T. Ho and C. H. Manley, Marcel Decker, Inc. (1992).

physchem = format: physicochemical

| half life in a buffer (physchem) | Compound | Sweetness (sweetening potency) [1] | sweetness potency [1] | Sweetness (sweetening potency) ([1]; listed as Example 1) |
| --- | --- | --- | --- | --- |
| 34.4 h | COC(=O)[C@H](Cc1ccccc1)NC(=O)[C@H](CC(=O)O)NCCC(C)(C)c1ccc(O)c(OC)c1 [Compound 9, N-[N-[3-(3-methoxy-4-hydroxyphenyl)-3-methylbutyl]-L-α-aspartyl)-L-phenylalanine 1 methyl ester] | 40000 times the sweetness of sugar | 40000 |  |
| 43.6 h | COC(=O)[C@H](Cc1ccccc1)NC(=O)[C@H](CC(=O)O)NCCC(C)(C)c1ccc(O)cc1 [Compound 8, N-[N-[3-(4-hydroxyphenyl)-3-methylbutyl]-L-α-aspartyl]-L-phenylalanine 1 methyl ester] | 25000 times the sweetness of sugar | 25000 |  |
| 44.5 h | COC(=O)[C@H](Cc1ccccc1)NC(=O)[C@H](CC(=O)O)NCCC(C)(C)c1ccc(OC)c(O)c1 [Compound 10, N-[N-[3-(3-hydroxy-4-methoxyphenyl)-3-methylbutyl]-L-α-aspartyl]-L-phenylalanine 1-methyl ester] |  | 70000 | 70000 times the sweetness of sugar |
